Laboratory results taken from patent US4971967A, “Quinolinecarboxylic acid derivatives, antibacterial compositions and use” (Kanebo Ltd, priority 1989, dated 1990).
Values after ≈ are worked out from the molar mass of the structure shown. Counter-ions that a name gives are not always drawn. Like-named read-outs stand apart in the source and are kept apart here.

Assays:
Format in all cases: cell-based
[1] = system: Staphylococcus aureus IID 803; assay: Antibacterial activity (MIC), S. aureus IID 803
Procedure: (§1) The compounds of the present invention (A, C, D, E, F, G, H, I, J, L, O and P) and the known compound (X) as reference were dissolved in 0.1 N aqueous sodium hydroxide to prepare a solution of 5000 μg/ml in concentration. The compounds of the present invention (B, K, M and N) and the known compound (Y) were dissolved in sterilized distilled water to prepare a solution of 5000 μg/ml in concentration. Each solution was diluted with sterilized distilled water to prepare a standard solution with a concentration of each test compound: 1000 μg/ml. The test was carried out by a method as appointed by Japan Society of Chemotherapy [cf. Chemotherapy, 29, 76-79 (1981)(TOKYO)].

[2] = system: Proteus vulgaris OX-19; assay: Antibacterial activity (MIC), Proteus vulgaris OX-19; details: OX19; Proteus vulgaris OX-19, Gram -; read-out: Minimum inhibitory concentration (MIC)
Procedure: as §1

[3] = system: Pseudomonas aeruginosa IFO 3445; assay: Antibacterial activity (MIC), P. aeruginosa IFO 3445; details: Pseudomonas aeruginosa, IFO3445, Pseudomonas aeruginosa IFO 3445, Gram -; read-out: Minimum inhibitory concentration (MIC)
Procedure: as §1

[4] = system: Bacillus subtilis ATCC 6633; assay: Antibacterial activity (MIC), Bacillus subtilis ATCC 6633; details: Bacillus subtilis, ATCC6633, Bacillus subtilis ATCC 6633, Gram +; read-out: Minimum inhibitory concentration (MIC)
Procedure: as §1

[5] = system: Salmonella typhimurium IID 971; assay: Antibacterial activity (MIC), Salmonella typhimurium IID 971; details: Salmonella enterica, read-out: Minimum inhibitory concentration (MIC)
Procedure: as §1

[6] = system: Klebsiella pneumoniae PCI-602; assay: Antibacterial activity (MIC), Klebsiella pneumoniae PCI-602; details: PCI602; Klebsiella pneumoniae PCI-602, Gram -; read-out: Minimum inhibitory concentration (MIC)
Procedure: as §1

[7] = system: Morganella morganii IFO 3848; assay: Antibacterial activity (MIC), Morganella morganii IFO 3848; details: Morganella morganii, IFO3848, Morganella morganii IFO 3848, Gram -; read-out: Minimum inhibitory concentration (MIC)
Procedure: as §1

[8] = system: Pseudomonas aeruginosa E-2; assay: Antibacterial activity (MIC), P. aeruginosa E-2; details: E2; Pseudomonas aeruginosa E-2, Gram -; read-out: Minimum inhibitory concentration (MIC)
Procedure: as §1

[9] = system: Serratia marcescens IAM 1184; assay: Antibacterial activity (MIC), Serratia marcescens IAM 1184; details: Serratia marcescens, IAM1184, Serratia marcescens IAM 1184, Gram -; read-out: Minimum inhibitory concentration (MIC)
Procedure: as §1

[10] = system: Citrobacter freundii NIHJ 10018-68; assay: Antibacterial activity (MIC), Citrobacter freundii NIHJ 10018-68; details: Citrobacter freundii, NIHJ10018, Citrobacter freundii NIHJ 10018-68, Gram -; read-out: Minimum inhibitory concentration (MIC)
Procedure: as §1

[11] = system: Staphylococcus aureus FDA 209P JC-1; assay: Antibacterial activity (MIC), S. aureus FDA 209P JC-1; details: FDA209P, read-out: Minimum inhibitory concentration (MIC)
Procedure: as §1

[12] = system: Pseudomonas aeruginosa NCTC 10490; assay: Antibacterial activity (MIC), P. aeruginosa NCTC 10490; details: Pseudomonas aeruginosa, NCTC10490, Pseudomonas aeruginosa NCTC 10490, Gram -; read-out: Minimum inhibitory concentration (MIC)
Procedure: as §1

[13] = system: Escherichia coli KC-14; assay: Antibacterial activity (MIC), E. coli KC-14; details: KC14; Escherichia coli KC-14, Gram -; read-out: Minimum inhibitory concentration (MIC)
Procedure: as §1

[14] = system: Micrococcus luteus ATCC 9341; assay: Antibacterial activity (MIC), Micrococcus luteus ATCC 9341; details: ATCC9341; Micrococcus luteus ATCC 9341, Gram +; read-out: Minimum inhibitory concentration (MIC)
Procedure: as §1

[15] = system: Enterobacter cloacae 963; assay: Antibacterial activity (MIC), Enterobacter cloacae 963; details: Enterobacter cloacae, 963, Enterobacter cloacae 963, Gram -; read-out: Minimum inhibitory concentration (MIC)
Procedure: as §1

[16] = system: Proteus mirabilis IFO 3849; assay: Antibacterial activity (MIC), Proteus mirabilis IFO 3849; details: IFO3849; Proteus mirabilis IFO 3849, Gram -; read-out: Minimum inhibitory concentration (MIC)
Procedure: as §1

[17] = system: Shigella sonnei EW-33; assay: Antibacterial activity (MIC), Shigella sonnei EW-33; details: Shigella sonnei, EW33, Shigella sonnei EW-33, Gram -; read-out: Minimum inhibitory concentration (MIC)
Procedure: as §1

[18] = system: Streptococcus faecalis IID 682; assay: Antibacterial activity (MIC), Streptococcus faecalis IID 682; details: Enterococcus faecalis
Procedure: as §1

[19] = system: Staphylococcus epidermidis IAM-1296; assay: Antibacterial activity (MIC), S. epidermidis IAM-1296; details: Staphylococcus epidermidis, IAM1296, Staphylococcus epidermidis IAM-1296, Gram +; read-out: Minimum inhibitory concentration (MIC)
Procedure: as §1

[20] = system: Acinetobacter calcoaceticus AC 54; assay: Antibacterial activity (MIC), Acinetobacter calcoaceticus AC 54; details: AC54; Acinetobacter calcoaceticus AC 54, Gram -; read-out: Minimum inhibitory concentration (MIC)
Procedure: as §1

[21] = system: Escherichia coli NIHJ JC-2; assay: Antibacterial activity (MIC), E. coli NIHJ JC-2; details: NIHJJC2; Escherichia coli NIHJ JC-2, Gram -; read-out: Minimum inhibitory concentration (MIC)
Procedure: as §1

[22] = system: Enterobacter aerogenes ATCC 13048; assay: Antibacterial activity (MIC), Enterobacter aerogenes ATCC 13048; details: Klebsiella aerogenes, ATCC13048; Enterobacter aerogenes ATCC 13048, Gram -; read-out: Minimum inhibitory concentration (MIC)
Procedure: as §1

[23] = IID803, Staphylococcus aureus IID 803, Gram +, read-out: Minimum inhibitory concentration (MIC)
[24] = Staphylococcus aureus FDA 209P JC-1, Gram +
[25] = Salmonella typhimurium IID 971, Gram -
[26] = IID682, Streptococcus faecalis IID 682, Gram +, read-out: Minimum inhibitory concentration (MIC)

Compound	MIC [1, 23]	MIC [2]	MIC [3]	MIC [4]	MIC [6]	MIC [7]	MIC [8]	MIC [9]	MIC [10]	MIC [11, 24]	MIC [12]	MIC [13]	MIC [14]	MIC [15]	MIC [16]	MIC [17]	MIC [19]	MIC [20]	MIC [21]	MIC [22]	further results
CN1Cc2csc3c(C(=O)O)c(=O)c4cc(F)c(N5CCOCC5)c1c4n23 [Compound (I), 9,1-(Methylimino)methano-7-fluoro-8-morpholino-5-oxo-5H-thiazolo[3,2-a]quinoline-4-carboxylic acid]	0.006 µg/mL (≈ 0.0154 µM)	0.025 µg/mL (≈ 0.0642 µM)	0.39 µg/mL (≈ 1 µM)	0.006 µg/mL (≈ 0.0154 µM)	0.006 µg/mL (≈ 0.0154 µM)	0.1 µg/mL (≈ 0.257 µM)	0.39 µg/mL (≈ 1 µM)	0.39 µg/mL (≈ 1 µM)	0.78 µg/mL (≈ 2 µM)	0.006 µg/mL (≈ 0.0154 µM)	0.2 µg/mL (≈ 0.514 µM)	0.1 µg/mL (≈ 0.257 µM)	0.1 µg/mL (≈ 0.257 µM)	0.1 µg/mL (≈ 0.257 µM)	0.1 µg/mL (≈ 0.257 µM)	0.05 µg/mL (≈ 0.128 µM)	0.025 µg/mL (≈ 0.0642 µM)	0.006 µg/mL (≈ 0.0154 µM)	0.1 µg/mL (≈ 0.257 µM)	0.2 µg/mL (≈ 0.514 µM)	MIC [5]: 0.05 µg/mL (≈ 0.128 µM); MIC ([18]; IID682, read-out: Minimum inhibitory concentration (MIC)): 0.05 µg/mL (≈ 0.128 µM)
CCNCC1CCN(c2c(F)cc3c(=O)c(C(=O)O)c4scc5n4c3c2N(C)C5)C1 (centres unmarked) [Compound (M), 9,1-(Methylimino)methano-7-fluoro-8-(3-ethylaminomethyl-1-pyrrolidinyl)-5-oxo-5H-thiazolo[3,2-a]quinoline-4-carboxylic acid hydrochloride]	0.0125 µg/mL	0.05 µg/mL	1.56 µg/mL	0.0125 µg/mL	0.006 µg/mL	0.2 µg/mL	1.56 µg/mL	0.78 µg/mL	0.78 µg/mL	0.025 µg/mL	0.39 µg/mL	0.1 µg/mL	0.2 µg/mL	0.2 µg/mL	0.39 µg/mL	0.05 µg/mL	0.05 µg/mL	0.05 µg/mL	0.1 µg/mL	0.1 µg/mL	MIC [5, 25]: 0.1 µg/mL; MIC [18, 26]: 0.05 µg/mL
CNCC1CCN(c2c(F)cc3c(=O)c(C(=O)O)c4scc5n4c3c2N(C)C5)C1 (centres unmarked) [Compound (N), 9,1-(Methylimino)methano-7-fluoro-8-(3-methylaminomethyl-1-pyrrolidinyl)-5-oxo-5H-thiazolo[3,2-a]quinoline-4-carboxylic acid hydrochloride]	0.0125 µg/mL	0.05 µg/mL	0.78 µg/mL	0.025 µg/mL	0.0125 µg/mL	0.2 µg/mL	0.78 µg/mL	0.78 µg/mL	0.78 µg/mL	0.025 µg/mL	0.39 µg/mL	0.05 µg/mL	0.2 µg/mL	0.1 µg/mL	0.39 µg/mL	0.05 µg/mL	0.05 µg/mL	0.05 µg/mL	0.1 µg/mL	0.2 µg/mL	MIC [5, 25]: 0.1 µg/mL; MIC [18, 26]: 0.05 µg/mL
CN1Cc2csc3c(C(=O)O)c(=O)c4cc(F)c(N5CCN(O)CC5)c1c4n23 [Compound (L), 9,1-(Methylimino)methano-7-fluoro-8-(4-hydroxy-1-piperazinyl)-5-oxo-5H-thiazolo[3,2-a]quinoline-4-carboxylic acid]		0.0125 µg/mL (≈ 0.0309 µM)	0.78 µg/mL (≈ 1.93 µM)	0.0125 µg/mL (≈ 0.0309 µM)	0.006 µg/mL (≈ 0.0148 µM)	0.1 µg/mL (≈ 0.247 µM)	0.78 µg/mL (≈ 1.93 µM)	0.78 µg/mL (≈ 1.93 µM)	0.39 µg/mL (≈ 0.964 µM)		0.39 µg/mL (≈ 0.964 µM)	0.1 µg/mL (≈ 0.247 µM)	0.78 µg/mL (≈ 1.93 µM)	0.1 µg/mL (≈ 0.247 µM)	0.2 µg/mL (≈ 0.495 µM)	0.05 µg/mL (≈ 0.124 µM)	0.1 µg/mL (≈ 0.247 µM)	0.025 µg/mL (≈ 0.0618 µM)	0.1 µg/mL (≈ 0.247 µM)	0.1 µg/mL (≈ 0.247 µM)	MIC ([1]; Staphylococcus aureus, IID803, read-out: Minimum inhibitory concentration (MIC)): 0.05 µg/mL (≈ 0.124 µM); MIC [5, 25]: 0.1 µg/mL (≈ 0.247 µM); MIC ([11]; Staphylococcus aureus): 0.05 µg/mL (≈ 0.124 µM); MIC [18, 26]: 0.1 µg/mL (≈ 0.247 µM)
CN1Cc2csc3c(C(=O)O)c(=O)c4cc(F)c(N5CCNCC5)c1c4n23 [Compound (C), 9,1-(Methylimino)methano-7-fluoro-8-(1-piperazinyl)-5-oxo-5H-thiazolo[3,2-a]quinoline-4-carboxylic acid]	0.05 µg/mL (≈ 0.129 µM)	0.006 µg/mL (≈ 0.0154 µM)	0.39 µg/mL (≈ 1 µM)	0.006 µg/mL (≈ 0.0154 µM)	0.006 µg/mL (≈ 0.0154 µM)	0.05 µg/mL (≈ 0.129 µM)	0.39 µg/mL (≈ 1 µM)	0.2 µg/mL (≈ 0.515 µM)	0.1 µg/mL (≈ 0.257 µM)	0.05 µg/mL (≈ 0.129 µM)	0.2 µg/mL (≈ 0.515 µM)	0.05 µg/mL (≈ 0.129 µM)	0.39 µg/mL (≈ 1 µM)	0.05 µg/mL (≈ 0.129 µM)	0.1 µg/mL (≈ 0.257 µM)	0.025 µg/mL (≈ 0.0644 µM)	0.05 µg/mL (≈ 0.129 µM)	0.025 µg/mL (≈ 0.0644 µM)	0.05 µg/mL (≈ 0.129 µM)	0.05 µg/mL (≈ 0.129 µM)	MIC [5, 25]: 0.05 µg/mL (≈ 0.129 µM); MIC [18, 26]: 0.05 µg/mL (≈ 0.129 µM)
